From patent US20240174611A1 (Rappta Therapeutics Oy, priority 2021, published 2024) come the findings set out here.

Structures are written as SMILES.

This assay has as its system LNCaP cells. Put plainly: LNCaP cell viability assay (MTS). In kind it is cell-based. Conditions: Homo sapiens, LNCaP, 48 h, LNCaP cell line, 48 hours treatment. The method, then: LNCaP cell line was used for the cell viability assay. LNCaP cells were plated in 96-well plates at a density of 5000 cells per well. After 24 hours of plating, the cells were treated with increasing doses of compound 1-100 ranging from 1 μM to 80 μM. Relative cell numbers were analyzed after 48 hours using 3-(4,5-dimethylthiazol-2-yl)-5-(3-carboxymethoxyphenyl)-2-(4-sulfophenyl)-2H-tetrazolium (MTS) assay (Promega) according to the manufacturer's instructions.
The cell viability data was analyzed with GraphPad Prism software. The values were log transformed and analyzed with non-linear regression (curve-fit) using log(inhibitor) vs. response—variable slope (four parameters) and constraining the bottom to equal zero. Unless otherwise indicated, the GI50 values provided in Table 35 correspond to the LNCaP cell viability assays.
With `CC(C)(C)OC(=O)N1CCC(NS(=O)(=O)c2ccc(OC(F)(F)F)cc2)(c2ccc(Cl)cc2)C1` (stereo not drawn) [Compound 70], halving of growth (GI50) required 21.7 µM.

As to `NS(=O)(=NC1(c2ccc(Cl)cc2)CCNCC1)c1ccc(OC(F)(F)F)cc1` (stereo not drawn) [Compound 96, N′-(4-(4-chlorophenyl)piperidin-4-yl)-4-(trifluoromethoxy)benzenesulfonimidamide], the GI50 – broadly, the concentration at which growth is held to half of that of the control – is 13.7 µM.

Turning to `O=S(=O)(NC1CCN(c2cccc(OC(F)(F)F)c2)C1)c1ccc(OC(F)(F)F)cc1` (stereo not drawn) [Compound 6], halving of growth (GI50) required 59.3 µM.

As for `CC(C)CC(=O)N1CCC(NS(=O)(=O)c2ccc(OC(F)(F)F)cc2)(c2ccc(Cl)cc2)C1` (stereo not drawn) [Compound 81, N-(3-(4-chlorophenyl)-1-(3-methylbutanoyl)pyrrolidin-3-yl)-4-(trifluoromethoxy)benzenesulfonamide], the GI50 is 45.8 µM.

As for `COC(=O)C#CC1(NS(=O)(=O)c2ccc(OC(F)(F)F)cc2)CCCC1` [Compound 19], the GI50 was 43 µM.

`CC(C)Oc1ccc(S(=O)(=O)NC2(c3ccc(Cl)cc3)CCNC2)cn1` (stereo not drawn) [Compound 80, N-(3-(4-chlorophenyl)pyrrolidin-3-yl)-6-isopropoxypyridine-3-sulfonamide] showed a GI50 of 50 µM. The GI50 values of the last two molecules are within 1.5-fold of each other.

With `O=S(=O)(N[C@@H]1CCN(C2CC2)[C@H]1c1ccc(F)c(F)c1)c1ccc(OC(F)(F)F)cc1` (racemic) [Compound 34], it took 33 µM to inhibit growth by half (GI50).

`O=S(=O)(NC1(c2ccc(Cl)cc2)CCNC1)c1ccc(Oc2ccc(C(F)(F)F)cc2)cc1` (stereo not drawn) [Compound 57, N-(3-(4-chlorophenyl)pyrrolidin-3-yl)-4-(4-(trifluoromethyl)phenoxy)benzenesulfonamide] came in with a 50% growth inhibitory concentration (GI50) of 10.6 µM.

The molecule `O=S(=O)(NC1(c2ccccc2)CCN(Cc2ccccc2)C1)c1ccc(OC(F)(F)F)cc1` (stereo not drawn) [Compound 35, N-(1-benzyl-3-phenylpyrrolidin-3-yl)-4-(trifluoromethoxy)benzene-sulfonamide] returned a GI50 of 38.7 µM.

In turn, `O=S(=O)(NC1(c2ccc(Cl)cc2)CCN(Cc2ccccc2)C1)c1ccc(Oc2ccc(C(F)(F)F)cc2)cc1` (stereo not drawn) [Compound 54, N-(1-benzyl-3-(4-chlorophenyl)pyrrolidin-3-yl)-4-(4-(trifluoromethyl)phenoxy)benzenesulfonamide] had a 50% growth inhibitory concentration (GI50) of 26.8 µM.

For `CN1CCC(NS(=O)(=O)c2ccc(OC(F)(F)F)cc2)(c2ccccc2)CC1` [Compound 61, N-(1-methyl-4-phenylpiperidin-4-yl)-4-(trifluoromethoxy)benzenesulfonamide], it took 44.1 µM to inhibit growth by half (GI50).

In the case of `COC(=O)[C@@H]1Cc2ccccc2[C@@H]1NS(=O)(=O)c1ccc(OC(F)(F)F)cc1` (racemic) [Compound 4], the concentration for 50% growth inhibition (GI50) is 40.4 µM.

As for `O=S(=O)(NC1(c2ccc(Cl)cc2)CCN(C2COC2)C1)c1ccc(OC(F)(F)F)cc1` (stereo not drawn) [Compound 71, N-(3-(4-chlorophenyl)-1-(oxetan-3-yl)pyrrolidin-3-yl)-4-(trifluoromethoxy)benzenesulfonamide], growth was halved (GI50) at 59.1 µM.

Regarding `CN1CC[C@@H](NS(=O)(=O)c2ccc(OC(F)(F)F)cc2)[C@@H]1c1ccc(Cl)cc1` (racemic) [Compound 9], the 50% growth inhibitory concentration (GI50) stood at 51.5 µM.

Turning to `O=S(=O)(NC1(c2ccc(Cl)cc2)CNC1)c1ccc(OC(F)(F)F)cc1` [Compound 47, N-(3-(4-chlorophenyl)azetidin-3-yl)-4-(trifluoromethoxy)benzenesulfonamide], growth was halved (GI50) at 31.8 µM.

Turning to `O=S(=O)(NC1(c2ccccc2)CCNCC1)c1ccc(OC(F)(F)F)nc1` [Compound 60, N-(4-phenylpiperidin-4-yl)-6-(trifluoromethoxy)pyridine-3-sulfonamide], the GI50 was determined as 49.6 µM.

In turn, `CC(C)Oc1ccc(S(=O)(=O)NC2(c3ccc(F)cc3)CCNCC2)cn1` [Compound 77, N-(4-(4-fluorophenyl)piperidin-4-yl)-6-isopropoxypyridine-3-sulfonamide] returned a GI50 of 41.7 µM.

Consider `O=S(=O)(NC1(c2ccc(Cl)c(F)c2)CNC1)c1ccc(OC(F)(F)F)cc1` [Compound 58, N-(3-(4-chloro-3-fluorophenyl)azetidin-3-yl)-4-(trifluoromethoxy)benzenesulfonamide], for which it took 23.2 µM to inhibit growth by half (GI50).
